Reference: PMC5515969, “Effects of 31 FDA approved small-molecule kinase inhibitors on isolated rat liver mitochondria” (Archives of Toxicology, 2016)
Like-named read-outs stand apart in the source and are kept apart here.

Experiments:
[1] = cited from earlier work
[2] = test system: isolated rat liver mitochondria; test: Mitochondrial inner membrane potential (MMP), Rhodamine 123; assay type: biochemical; settings: difference in signal between KI and DMSO treated samples at the end of experiments
Excerpt: Fig. 3 KI effects on mitochondrial inner membrane potential (MMP). […] In a, c, data are means and standard derivations from three separate experiments. *p < 0.05 as compared to DMSO-treated samples at the end of experiments. In b, data are means of two independent experiments

[3] = test system: isolated rat liver mitochondria; test: Mitochondrial oxygen consumption (glutamate/malate or succinate driven, state 4 and state 3); assay type: biochemical; settings: DMSO treated samples set as 1; as to State 3 respiration driven by succinate at 10XCmax: key: 0 indicates that the drug had no effects (negative); as to State 3 respiration driven by succinate at 1XCmax: key: 0 indicates that the drug had no effects (negative)
How it was run: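 Rat liver mitochondria (1 mg/ml protein) exposed 5 min to kinase inhibitors in 0.1% DMSO, then O2 consumption measured by Clark-type electrode with glutamate/malate or succinate (state 4), ADP added after 3 min (state 3). Rates normalized to 0.1% DMSO controls set to 1.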

[4] = test system: isolated rat liver mitochondria; settings: positive control alamethicin treated samples
RCC I = RCC I activity in submitochondrial particles; assay type: biochemical, rat; design: key to RCC I at 10XCmax / RCC I at 100XCmax / RCC I at 50XCmax / RCC I at 30XCmax / RCC I at 20XCmax: activity relative to DMSO-treated controls (control set as 1 = 100%); settings: 10XCmax
How it was run: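 Abs 340 nm (I/V) or 600 nm (II), 1-min reads × 6 min; 550 nm (III, IV), 10-s reads × 2 min. RCC I = rotenone-free minus rotenone rate. DMSO control = 1.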

[5] = test system: isolated rat liver mitochondria; test: Mitochondrial ROS production (CM-H2DCFDA); settings: DMSO treated samples set as 1
RCC III = RCC III activity in submitochondrial particles; assay type: biochemical, rat; design: key to RCC III at 100XCmax: activity relative to DMSO-treated controls (control set as 1 = 100%); settings: 100XCmax
How it was run: (§1)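 Kinase inhibitors were preincubated 15 min with submitochondrial particles (1 mg/ml) before complex activities were measured. RCC I was the rotenone-sensitive portion (activity without minus with rotenone). RCC I/V was read at 340 nm and RCC II at 600 nm every 1 min for 6 min. RCC III and IV were read at 550 nm every 10 s for 2 min. Activities are normalized to DMSO controls set as 1.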

RCC IV = RCC IV activity in submitochondrial particles; assay type: biochemical, rat; design: key to RCC IV at 50XCmax / RCC IV at 100XCmax: activity relative to DMSO-treated controls (control set as 1 = 100%); settings: 50XCmax, in %
How it was run: as §1

RCC II = target: T1, RCC II (Rattus norvegicus, UniProt P21913+Q641Z9+Q6PCT8+Q920L2); test: RCC II activity in submitochondrial particles; assay type: biochemical; design: key: activity relative to DMSO-treated controls (control set as 1 = 100%)
T1 construct: Submitochondrial particles were prepared by subjecting the intact mitochondria to three successive freeze–thaw cycles; from tissue; host or cells: rat liver mitochondria, used as submitochondrial particles
How it was run: as §1

[6] = human therapeutic Cmax at FDA recommended dosages, ref product labeling and drug approval packages at the official FDA website
[7] = relative to DMSO treated samples

T1 sequence (Q920L2 35-656): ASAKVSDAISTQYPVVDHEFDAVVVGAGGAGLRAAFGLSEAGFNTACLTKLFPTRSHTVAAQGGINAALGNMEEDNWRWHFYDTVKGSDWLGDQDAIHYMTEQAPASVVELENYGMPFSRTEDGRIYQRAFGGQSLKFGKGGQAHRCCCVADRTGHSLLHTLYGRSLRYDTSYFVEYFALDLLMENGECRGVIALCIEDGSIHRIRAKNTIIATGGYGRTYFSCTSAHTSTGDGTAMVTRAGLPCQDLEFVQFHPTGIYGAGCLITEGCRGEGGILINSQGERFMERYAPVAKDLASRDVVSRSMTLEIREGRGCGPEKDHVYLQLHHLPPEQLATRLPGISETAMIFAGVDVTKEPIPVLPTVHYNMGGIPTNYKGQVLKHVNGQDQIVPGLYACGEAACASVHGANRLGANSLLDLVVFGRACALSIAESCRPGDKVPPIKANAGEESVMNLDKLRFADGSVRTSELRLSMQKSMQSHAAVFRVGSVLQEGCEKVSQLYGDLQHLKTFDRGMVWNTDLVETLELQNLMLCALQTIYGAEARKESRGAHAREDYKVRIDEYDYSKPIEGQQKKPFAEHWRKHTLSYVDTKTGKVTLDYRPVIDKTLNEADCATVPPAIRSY
T1 sequence (P21913 31-282): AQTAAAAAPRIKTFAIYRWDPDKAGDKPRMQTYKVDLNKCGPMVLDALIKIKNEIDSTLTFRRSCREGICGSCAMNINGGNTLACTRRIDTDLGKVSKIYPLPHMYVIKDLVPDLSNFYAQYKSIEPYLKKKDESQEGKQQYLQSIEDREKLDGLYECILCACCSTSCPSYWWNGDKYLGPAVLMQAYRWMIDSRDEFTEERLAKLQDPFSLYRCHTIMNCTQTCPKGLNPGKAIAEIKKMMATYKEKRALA
T1 sequence (Q641Z9 1-169): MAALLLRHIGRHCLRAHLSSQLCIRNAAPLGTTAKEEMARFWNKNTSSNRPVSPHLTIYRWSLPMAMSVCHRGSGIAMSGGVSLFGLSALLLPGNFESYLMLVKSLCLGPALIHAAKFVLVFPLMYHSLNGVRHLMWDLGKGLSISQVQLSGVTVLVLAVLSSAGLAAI
T1 sequence (Q6PCT8 57-159): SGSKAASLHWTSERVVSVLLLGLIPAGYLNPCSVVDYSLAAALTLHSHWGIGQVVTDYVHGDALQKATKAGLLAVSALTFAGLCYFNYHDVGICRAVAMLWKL

COC(=O)c1ccc2c(c1)NC(=O)/C2=C(\Nc1ccc(N(C)C(=O)CN2CCN(C)CC2)cc1)c1ccccc1 [Nintedanib]
0.06 µM: Cmax [1, 6] | Cmax ([1]; read-out: Cmax at µM, human therapeutic maximal blood concentration, ref product labeling)
0: MMP measured by Rhodamine 123 at 1XCmax [2] | MMP measured by Rhodamine 123 at 2.5XCmax [2] | MMP measured by Rhodamine 123 at 5XCmax [2] | MMP measured by Rhodamine 123 at 10XCmax [2] | MMP measured by Rhodamine 123 at 20XCmax [2] | MMP measured by Rhodamine 123 at 30XCmax [2] | MMP measured by Rhodamine 123 at 50XCmax [2] | MMP measured by Rhodamine 123 at 100XCmax [2] | State 3 respiration driven by glutamate/malate at 1XCmax [3] | State 3 respiration driven by succinate at 1XCmax [3] | State 4 respiration driven by glutamate/malate at 1XCmax [3] | State 4 respiration driven by succinate at 1XCmax [3] | State 3 respiration driven by glutamate/malate at 2.5XCmax [3] | State 3 respiration driven by succinate at 2.5XCmax [3] | State 4 respiration driven by glutamate/malate at 2.5XCmax [3] | State 4 respiration driven by succinate at 2.5XCmax [3] | State 3 respiration driven by glutamate/malate at 5XCmax [3] | State 3 respiration driven by succinate at 5XCmax [3] | State 4 respiration driven by glutamate/malate at 5XCmax [3] | State 4 respiration driven by succinate at 5XCmax [3] | State 3 respiration driven by glutamate/malate at 10XCmax [3] | State 3 respiration driven by succinate at 10XCmax [3] | State 4 respiration driven by glutamate/malate at 10XCmax [3] | State 4 respiration driven by succinate at 10XCmax [3] | State 3 respiration driven by glutamate/malate at 20XCmax [3] | State 3 respiration driven by succinate at 20XCmax [3] | State 4 respiration driven by glutamate/malate at 20XCmax [3] | State 4 respiration driven by succinate at 20XCmax [3] | State 3 respiration driven by glutamate/malate at 30XCmax [3] | State 3 respiration driven by succinate at 30XCmax [3] | State 4 respiration driven by glutamate/malate at 30XCmax [3] | State 4 respiration driven by succinate at 30XCmax [3] | State 3 respiration driven by glutamate/malate at 50XCmax [3] | State 3 respiration driven by succinate at 50XCmax [3] | State 4 respiration driven by glutamate/malate at 50XCmax [3] | State 4 respiration driven by succinate at 50XCmax [3] | State 3 respiration driven by glutamate/malate at 100XCmax [3] | State 3 respiration driven by succinate at 100XCmax [3] | State 4 respiration driven by glutamate/malate at 100XCmax [3] | State 4 respiration driven by succinate at 100XCmax [3] | Cytochrome c release 1XCmax [4] | Cytochrome c release 2.5XCmax [4] | Cytochrome c release 5XCmax [4] | Cytochrome c release 10XCmax [4] | Cytochrome c release 20XCmax [4] | Cytochrome c release 30XCmax [4] | Cytochrome c release 50XCmax [4] | Cytochrome c release 100XCmax [4] | RCC I at 10XCmax (RCC I; DMSO treated samples set as 1) | ROS measured by CM-H2DCFDA at 1XCmax [5] | ROS measured by CM-H2DCFDA at 2.5XCmax [5] | ROS measured by CM-H2DCFDA at 5XCmax [5] | ROS measured by CM-H2DCFDA at 10XCmax [5] | ROS measured by CM-H2DCFDA at 20XCmax [5] | ROS measured by CM-H2DCFDA at 30XCmax [5] | ROS measured by CM-H2DCFDA at 50XCmax [5] | ROS measured by CM-H2DCFDA at 100XCmax [5] | RCC III at 100XCmax (RCC III) | RCC IV at 50XCmax (RCC IV; DMSO treated samples set as 1) | RCC II at 1.0XCmax (RCC II; DMSO treated samples set as 1) | RCC II at 2.5XCmax (RCC II; DMSO treated samples set as 1) | RCC II at 5XCmax (RCC II; DMSO treated samples set as 1) | RCC II at 10XCmax (RCC II; DMSO treated samples set as 1) | RCC II at 20XCmax (RCC II; DMSO treated samples set as 1) | RCC II at 30XCmax (RCC II; DMSO treated samples set as 1) | RCC II at 50XCmax (RCC II; DMSO treated samples set as 1) | RCC II at 100XCmax (RCC II; DMSO treated samples set as 1)
0.0349 µg/mL: Cmax (ng or µg/ml) ([1]; human therapeutic maximal blood concentration, ref product labeling)

CNC(=O)c1ccccc1Sc1ccc2c(/C=C/c3ccccn3)n[nH]c2c1 [Axitinib]
0.07 µM: Cmax [1, 6]
27.8 ng/mL: Cmax ([1]; therapeutic maximal blood concentration, ref product labeling)
0: MMP measured by Rhodamine 123 at 1XCmax [2] | MMP measured by Rhodamine 123 at 2.5XCmax [2] | MMP measured by Rhodamine 123 at 5XCmax [2] | MMP measured by Rhodamine 123 at 10XCmax [2] | MMP measured by Rhodamine 123 at 20XCmax [2] | MMP measured by Rhodamine 123 at 30XCmax [2] | MMP measured by Rhodamine 123 at 50XCmax [2] | MMP measured by Rhodamine 123 at 100XCmax [2] | State 3 respiration driven by glutamate/malate at 1XCmax [3] | State 3 respiration driven by succinate at 1XCmax [3] | State 4 respiration driven by glutamate/malate at 1XCmax [3] | State 4 respiration driven by succinate at 1XCmax [3] | State 3 respiration driven by glutamate/malate at 2.5XCmax [3] | State 3 respiration driven by succinate at 2.5XCmax [3] | State 4 respiration driven by glutamate/malate at 2.5XCmax [3] | State 4 respiration driven by succinate at 2.5XCmax [3] | State 3 respiration driven by glutamate/malate at 5XCmax [3] | State 3 respiration driven by succinate at 5XCmax [3] | State 4 respiration driven by glutamate/malate at 5XCmax [3] | State 4 respiration driven by succinate at 5XCmax [3] | State 3 respiration driven by glutamate/malate at 10XCmax [3] | State 3 respiration driven by succinate at 10XCmax [3] | State 4 respiration driven by glutamate/malate at 10XCmax [3] | State 4 respiration driven by succinate at 10XCmax [3] | State 3 respiration driven by glutamate/malate at 20XCmax [3] | State 3 respiration driven by succinate at 20XCmax [3] | State 4 respiration driven by glutamate/malate at 20XCmax [3] | State 4 respiration driven by succinate at 20XCmax [3] | State 3 respiration driven by glutamate/malate at 30XCmax [3] | State 3 respiration driven by succinate at 30XCmax [3] | State 4 respiration driven by glutamate/malate at 30XCmax [3] | State 4 respiration driven by succinate at 30XCmax [3] | State 3 respiration driven by glutamate/malate at 50XCmax [3] | State 3 respiration driven by succinate at 50XCmax [3] | State 4 respiration driven by glutamate/malate at 50XCmax [3] | State 4 respiration driven by succinate at 50XCmax [3] | State 3 respiration driven by glutamate/malate at 100XCmax [3] | State 3 respiration driven by succinate at 100XCmax [3] | State 4 respiration driven by glutamate/malate at 100XCmax [3] | State 4 respiration driven by succinate at 100XCmax [3] | Cytochrome c release 1XCmax [4] | Cytochrome c release 2.5XCmax [4] | Cytochrome c release 5XCmax [4] | Cytochrome c release 10XCmax [4] | Cytochrome c release 20XCmax [4] | Cytochrome c release 30XCmax [4] | Cytochrome c release 50XCmax [4] | Cytochrome c release 100XCmax [4] | RCC I at 10XCmax (RCC I; [7]) | ROS measured by CM-H2DCFDA at 1XCmax [5] | ROS measured by CM-H2DCFDA at 2.5XCmax [5] | ROS measured by CM-H2DCFDA at 5XCmax [5] | ROS measured by CM-H2DCFDA at 10XCmax [5] | ROS measured by CM-H2DCFDA at 20XCmax [5] | ROS measured by CM-H2DCFDA at 30XCmax [5] | ROS measured by CM-H2DCFDA at 50XCmax [5] | ROS measured by CM-H2DCFDA at 100XCmax [5] | RCC III at 100XCmax (RCC III; [7]) | RCC IV at 50XCmax (RCC IV; [7]) | RCC II at 1.0XCmax (RCC II; [7]) | RCC II at 2.5XCmax (RCC II; [7]) | RCC II at 5XCmax (RCC II; [7]) | RCC II at 10XCmax (RCC II; [7]) | RCC II at 20XCmax (RCC II; [7]) | RCC II at 30XCmax (RCC II; [7]) | RCC II at 50XCmax (RCC II; [7]) | RCC II at 100XCmax (RCC II; [7])
